Laboratory results from patent US20030108872A1, “Genomics-assisted rapid identification of targets” (priority 2000, published 2003).

Tests used:
[1] = test system: strains carrying the wild-type murA gene (single copy or multiple copies); assay: Growth on MHB plates with phosphomycin, wild-type murA; format: cell-based, E. coli
Protocol: (§1) E. coli mutants resistant to phosphomycin were obtained by plating E. coli MC1061 cells in the presence of 5 μg/ml phosphomycin (about 5×MIC), in MHB. Colonies of these resistant mutants were picked and repatched on MHB plates supplemented with 5 μg/ml. […] To determine whether the phenotype of phosphomycin resistance is due to these changes in the murA gene, primers murA-F1 and murA-R1 were used to amplify up a region consisting of 1 kb upstream of the murA gene and 1 kb downstream of the murA gene using as template, DNA extracted from MC1061 and from the phosphomycin-resistant murA mutants. The 3.5 kb PCR amplification fragments were cloned into a high copy vector, and 3 independent clones were picked for each type. The clones, carrying multi-copy plasmids with either wild-type murA or mutated mura, were streaked onto MHB plates and on MHB supplemented with 5, 25, and 50 ,μg/ml phosphomycin. The wild-type MC1061 strain (carrying a single copy of the wild-type murA gene) and the original mutants resistant to phosphomycin were used as controls. All strains grew on MHB plates without phosphomycin. On MHB plates with 5 μg/ml phosphomycin, there was slight growth for strains carrying the wild-type murA gene, whether present in single copy or multiple copies, whereas there was robust growth for cells with the mutated murA gene, whether present in single or multiple copies. On MHB plates with 25 μg/ml phosphomycin, there was no growth for strains carrying the wild-type mura gene, whether present in single copy or multiple copies, but there was robust growth for cells carrying single or multiple copies of the mutated murA gene. On MHB plates with 50 μg/ml phosphomycin, there was no growth for strains carrying wild-type murA (whether present in single copy or multiple copies) but slight growth for strains carrying the mutated murA gene whether present in single or multiple copies. Clearly, the mutants isolated because of their phenotype of resistance to phosphomycin carry mutant mura genes which can confer resistance when transferred to other cells by transformation. […]

[2] = test system: cells with the mutated murA gene (single or multiple copies); assay: Growth on MHB plates with phosphomycin, mutated murA; format: cell-based, E. coli
Protocol: as §1

## C[C@@H]1O[C@@H]1P(=O)(O)O [phosphomycin]
[1]; 5 μg/ml phosphomycin
  growth on MHB plates: slight growth
[1]; 25 μg/ml phosphomycin
  growth on MHB plates: no growth
[1]; 50 μg/ml phosphomycin
  growth on MHB plates: no growth
[2]; 5 μg/ml phosphomycin
  growth on MHB plates: robust growth
[2]; 25 μg/ml phosphomycin
  growth on MHB plates: robust growth
[2]; 50 μg/ml phosphomycin
  growth on MHB plates: slight growth
